In US8648066B2 (Exelixis, Inc., priority 2009, dated 2014):

Molecular target: mTOR/GbL/Raptor (mTORC1) (Homo sapiens, UniProt P42345)
Assay: mTOR/GbL/Raptor (mTORC1) ELISA assay
Type: biochemical
Settings: phosphorylation of 4E-BP1; 0.2 nM mTORC1, 10 μM ATP; read-out: IC50 in this assay (mTORC1 ELISA)
Method in brief: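 ELISA read-out: phospho-4E-BP1 captured on Ni-chelate plates and detected with anti-phospho antibody plus HRP-anti-IgG luminescence. The kinase step ran 120 min at ambient temperature with 0.2 nM human mTORC1, 10 µM ATP, 50 nM His-4E-BP1, 10 mM MnCl2, pH 7.2 HEPES.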

Row | SMILES | IC50
1 | Cc1nc2ncc(-c3ccc4c(c3)CN(c3ncnc(N5CCC5)c3C)CCO4)cc2[nH]1 [Example 480, 4-(6-azetidin-1-yl-5-methylpyrimidin-4-yl)-7-(2-methyl-1H-imidazo[4,5-b]pyridin-6-yl)-2,3,4,5-tetrahydro-1,4-benzoxazepine] | 250 to 1000 nM
2 | CC1(C)CCc2ncnc(N3CCOc4ccc(-c5cnc(N)c(S(=O)(=O)NC[C@@H]6CCCN6)c5)cc4C3)c2C1 [Example 383, 2-amino-5-[4-(6,6-dimethyl-5,6,7,8-tetrahydroquinazolin-4-yl)-2,3,4,5-tetrahydro-1,4-benzoxazepin-7-yl]-N-[(2S)-pyrrolidin-2-ylmethyl]pyridine-3-sulfonamide] | 50 to 250 nM
3 | Cc1nc2ccc(-c3ccc4c(c3)CN(c3ncnc5c3CCC(C)C5)CCO4)cc2[nH]1 (centres unmarked) [Example 63, 7-(2-methyl-1H-benzimidazol-6-yl)-4-(7-methyl-5,6,7,8-tetrahydroquinazolin-4-yl)-2,3,4,5-tetrahydro-1,4-benzoxazepine] | 50 to 250 nM
4 | COC(=O)Nc1nc2ccc(-c3ccc4c(c3)CN(c3nc(CN(C)C)nc5c3CC(C)(C)CC5)CCO4)cc2[nH]1 [Example 579, methyl [6-(4-{2-[(dimethylamino)methyl]-6,6-dimethyl-5,6,7,8-tetrahydroquinazolin-4-yl}-2,3,4,5-tetrahydro-1,4-benzoxazepin-7-yl)-1H-benzimidazol-2-yl]carbamate] | 250 to 1000 nM
5 | COCCOc1ccc(-c2ccc3c(c2)CN(c2nc(CN(C)C)nc4c2CC(C)(C)CC4)CCO3)cc1OC [Example 327, 1-(6,6-dimethyl-4-{7-[3-(methyloxy)-4-{[2-(methyloxy)ethyl]oxy}phenyl]-2,3-dihydro-1,4-benzoxazepin-4(5H)-yl}-5,6,7,8-tetrahydroquinazolin-2-yl)-N,N-dimethylmethanamine] | 250 to 1000 nM

Further lines, results first:

Row | IC50 | SMILES
6 | 10 to 50 nM | Cc1nc2ccc(-c3ccc4c(c3)CN(c3nc(CN(C)C)nc5c3CC(C)(C)CC5)CCO4)cc2[nH]1 [Example 351, 1-{6,6-dimethyl-4-[7-(2-methyl-1H-benzimidazol-6-yl)-2,3-dihydro-1,4-benzoxazepin-4(5H)-yl]-5,6,7,8-tetrahydroquinazolin-2-yl}-N,N-dimethylmethanamine]
7 | ≤ 10 nM | CCN(C)Cc1nc2c(c(N3CCOc4ccc(-c5cnc6nc(C)[nH]c6c5)cc4C3)n1)CC(C)(C)CC2 [Example 605, N-({6,6-dimethyl-4-[7-(2-methyl-1H-imidazo[4,5-b]pyridin-6-yl)-2,3-dihydro-1,4-benzoxazepin-4(5H)-yl]-5,6,7,8-tetrahydroquinazolin-2-yl}methyl)-N-methylethanamine]
8 | ≤ 10 nM | Cc1nc2cc(-c3ccc4c(c3)CN(c3nc(CN(C)C)nc(C)c3Cc3ccc(F)cc3)CCO4)ccc2[nH]1 [Example 347, 1-{5-[(4-fluorophenyl)methyl]-4-methyl-6-[7-(2-methyl-1H-benzimidazol-5-yl)-2,3-dihydro-1,4-benzoxazepin-4(5H)-yl]pyrimidin-2-yl}-N,N-dimethylmethanamine]
9 | 50 to 250 nM | CC1(C)CCc2ncnc(N3CCOc4ccc(-c5cnc(N)c(S(=O)(=O)N6CC(F)(F)C6)c5)cc4C3)c2C1 [Example 438, 3-[(3,3-difluoroazetidin-1-yl)sulfonyl]-5-[4-(6,6-dimethyl-5,6,7,8-tetrahydroquinazolin-4-yl)-2,3,4,5-tetrahydro-1,4-benzoxazepin-7-yl]pyridin-2-amine]
10 | 10 to 50 nM | CC1(C)CCc2ncnc(N3CCOc4ccc(-c5cnc(N)c(S(=O)(=O)NC6CC7CCC(C6)N7)c5)cc4C3)c2C1 (centres unmarked) [Example 425, 2-amino-N-8-azabicyclo[3.2.1]oct-3-yl-5-[4-(6,6-dimethyl-5,6,7,8-tetrahydroquinazolin-4-yl)-2,3,4,5-tetrahydro-1,4-benzoxazepin-7-yl]pyridine-3-sulfonamide]
11 | ≤ 10 nM | CC1(C)CCc2ncnc(N3CCOc4ccc(-c5ccc6nc(NCCF)[nH]c6c5)cc4C3)c2C1 [Example 215, 6-[4-(6,6-dimethyl-5,6,7,8-tetrahydroquinazolin-4-yl)-2,3,4,5-tetrahydro-1,4-benzoxazepin-7-yl]-N-(2-fluoroethyl)-1H-benzimidazol-2-amine]
